Tests used:
Experiment in all cases: relative viability (nuclei count vs DMSO), 5 days (fraction); higher = more cells survive
[1] = tested on: EKVX
Procedure, shortened: (§1)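 One day after seeding in 1536-well plates, lung cancer cell lines were dosed by pin tool. Dosing was either single-drug or a fixed anchor-drug dose plus five library-drug doses (not always all listed) in √10 steps. After 5 days, nuclei were stained in one fix-and-stain step and counted on 4× images, and relative viability is the nuclei count of treated wells over that of vehicle wells, given as the median of duplicate plates.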

[2] = tested on: NCI-H1355
Procedure, shortened: as §1

[3] = tested on: NCI-H1993
Procedure, shortened: as §1

[4] = tested on: NCI-H2170
Procedure, shortened: as §1

[5] = tested on: NCI-H1944
Procedure, shortened: as §1

[6] = tested on: NCI-H661
Procedure, shortened: as §1

[7] = tested on: SK-MES-1
Procedure, shortened: as §1

[8] = tested on: NCI-H727
Procedure, shortened: as §1

[9] = tested on: NCI-H1666
Procedure, shortened: as §1

[10] = tested on: HOP-62
Procedure, shortened: as §1

[11] = tested on: LOU-NH91
Procedure, shortened: as §1

[12] = tested on: NCI-H441
Procedure, shortened: as §1

[13] = tested on: NCI-H2126
Procedure, shortened: as §1

[14] = tested on: BEN
Procedure, shortened: as §1

[15] = tested on: LCLC-103H
Procedure, shortened: as §1

[16] = tested on: HCC-827
Procedure, shortened: as §1

[17] = tested on: NCI-H647
Procedure, shortened: as §1

[18] = tested on: PC-14
Procedure, shortened: as §1

[19] = tested on: LK-2
Procedure, shortened: as §1

[20] = tested on: LXF-289
Procedure, shortened: as §1

[21] = tested on: ChaGo-K-1
Procedure, shortened: as §1

[22] = tested on: NCI-H1437
Procedure, shortened: as §1

[23] = tested on: RERF-LC-KJ
Procedure, shortened: as §1

CN1CCN(CCOc2cc(OC3CCOCC3)c3c(Nc4c(Cl)ccc5c4OCO5)ncnc3c2)CC1 [Saracatinib] + COc1cc2c(Oc3ccc(NC(=O)C4(C(=O)Nc5ccc(F)cc5)CC4)cc3F)ccnc2cc1OCCCN1CCOCC1 [Foretinib] (partner 0.25 µM)
relative viability ([1]; first compound 0.02 µM): 0.866 | relative viability ([1]; first compound 0.6325 µM): 0.268 | relative viability ([1]; first compound 2 µM): 0.401 | relative viability ([2]; first compound 0.02 µM): 0.965 | relative viability ([2]; first compound 0.2 µM): 0.991 | relative viability ([2]; first compound 0.6325 µM): 1.1 | relative viability ([2]; first compound 2 µM): 0.934 | relative viability ([3]; first compound 0.02 µM): 0.692 | relative viability ([3]; first compound 0.2 µM): 0.625 | relative viability ([3]; first compound 0.6325 µM): 0.696 | relative viability ([3]; first compound 2 µM): 0.552 | relative viability ([4]; first compound 0.02 µM): 0.989 | relative viability ([4]; first compound 0.2 µM): 0.705 | relative viability ([4]; first compound 0.6325 µM): 1.03 | relative viability ([4]; first compound 2 µM): 0.872 | relative viability ([5]; first compound 0.02 µM): 0.868 | relative viability ([5]; first compound 0.6325 µM): 0.935 | relative viability ([5]; first compound 2 µM): 0.549 | relative viability ([6]; first compound 0.02 µM): 1.02 | relative viability ([6]; first compound 0.2 µM): 0.948 | relative viability ([6]; first compound 0.6325 µM): 0.993 | relative viability ([6]; first compound 2 µM): 0.45 | relative viability ([7]; first compound 0.02 µM): 0.94 | relative viability ([7]; first compound 0.2 µM): 0.772 | relative viability ([7]; first compound 0.6325 µM): 0.798 | relative viability ([7]; first compound 2 µM): 0.533 | relative viability ([8]; first compound 0.02 µM): 0.814 | relative viability ([8]; first compound 0.2 µM): 1.04 | relative viability ([8]; first compound 0.6325 µM): 0.923 | relative viability ([8]; first compound 2 µM): 0.553 | relative viability ([9]; first compound 0.02 µM): 1.04 | relative viability ([9]; first compound 0.2 µM): 0.836 | relative viability ([9]; first compound 0.6325 µM): 1.27 | relative viability ([9]; first compound 2 µM): 1.14 | relative viability ([10]; first compound 0.02 µM): 1.17 | relative viability ([10]; first compound 0.2 µM): 1.02 | relative viability ([10]; first compound 0.6325 µM): 1.13 | relative viability ([10]; first compound 2 µM): 1.16 | relative viability ([11]; first compound 0.02 µM): 0.867 | relative viability ([11]; first compound 0.2 µM): 0.661 | relative viability ([11]; first compound 0.6325 µM): 0.609 | relative viability ([11]; first compound 2 µM): 0.488 | relative viability ([12]; first compound 0.02 µM): 1.04 | relative viability ([12]; first compound 0.2 µM): 0.985 | relative viability ([12]; first compound 0.6325 µM): 1.08 | relative viability ([12]; first compound 2 µM): 1.13 | relative viability ([13]; first compound 0.02 µM): 1.15 | relative viability ([13]; first compound 0.2 µM): 1.22 | relative viability ([13]; first compound 0.6325 µM): 1.17 | relative viability ([13]; first compound 2 µM): 1.07 | relative viability ([14]; first compound 0.02 µM): 0.753 | relative viability ([14]; first compound 0.6325 µM): 0.707 | relative viability ([14]; first compound 2 µM): 0.476 | relative viability ([15]; first compound 0.02 µM): 0.698 | relative viability ([15]; first compound 0.2 µM): 0.669 | relative viability ([15]; first compound 0.6325 µM): 0.742 | relative viability ([15]; first compound 2 µM): 0.572 | relative viability ([16]; first compound 0.02 µM): 1.08 | relative viability ([16]; first compound 0.2 µM): 0.452 | relative viability ([16]; first compound 0.6325 µM): 0.193 | relative viability ([16]; first compound 2 µM): 0.17 | relative viability ([17]; first compound 0.02 µM): 0.997 | relative viability ([17]; first compound 0.2 µM): 1.14 | relative viability ([17]; first compound 0.6325 µM): 1.04 | relative viability ([17]; first compound 2 µM): 1.12 | relative viability ([18]; first compound 0.02 µM): 0.986 | relative viability ([18]; first compound 0.2 µM): 0.721 | relative viability ([18]; first compound 0.6325 µM): 0.612 | relative viability ([18]; first compound 2 µM): 0.209 | relative viability ([19]; first compound 0.02 µM): 0.997 | relative viability ([19]; first compound 0.2 µM): 1.09 | relative viability ([19]; first compound 0.6325 µM): 1.41 | relative viability ([19]; first compound 2 µM): 0.537 | relative viability ([20]; first compound 0.02 µM): 0.922 | relative viability ([20]; first compound 0.2 µM): 0.748 | relative viability ([20]; first compound 0.6325 µM): 1.04 | relative viability ([20]; first compound 2 µM): 0.891 | relative viability ([21]; first compound 0.02 µM): 0.943 | relative viability ([21]; first compound 0.2 µM): 0.699 | relative viability ([21]; first compound 0.6325 µM): 0.973 | relative viability ([21]; first compound 2 µM): 0.874 | relative viability ([22]; first compound 0.02 µM): 1.27 | relative viability ([22]; first compound 0.2 µM): 1.22 | relative viability ([22]; first compound 0.6325 µM): 1.3 | relative viability ([22]; first compound 2 µM): 1.3 | relative viability ([23]; first compound 0.02 µM): 0.895 | relative viability ([23]; first compound 0.2 µM): 0.855 | relative viability ([23]; first compound 0.6325 µM): 0.917 | relative viability ([23]; first compound 2 µM): 0.877

CN1CCN(CCOc2cc(OC3CCOCC3)c3c(Nc4c(Cl)ccc5c4OCO5)ncnc3c2)CC1 [Saracatinib] + COc1cccc2cc(-c3nc([C@H]4CC[C@H](C(=O)O)CC4)n4ncnc(N)c34)[nH]c12 [OSI-027] (partner 0.5 µM)
relative viability ([1]; first compound 0.02 µM): 0.679 | relative viability ([1]; first compound 0.6325 µM): 0.746 | relative viability ([1]; first compound 2 µM): 0.456 | relative viability ([2]; first compound 0.02 µM): 0.482 | relative viability ([2]; first compound 0.2 µM): 0.379 | relative viability ([2]; first compound 0.6325 µM): 0.427 | relative viability ([2]; first compound 2 µM): 0.323 | relative viability ([3]; first compound 0.02 µM): 0.54 | relative viability ([3]; first compound 0.2 µM): 0.508 | relative viability ([3]; first compound 0.6325 µM): 0.497 | relative viability ([3]; first compound 2 µM): 0.525 | relative viability ([4]; first compound 0.02 µM): 0.694 | relative viability ([4]; first compound 0.2 µM): 0.459 | relative viability ([4]; first compound 0.6325 µM): 0.811 | relative viability ([4]; first compound 2 µM): 0.53 | relative viability ([5]; first compound 0.02 µM): 0.43 | relative viability ([5]; first compound 0.6325 µM): 0.324 | relative viability ([5]; first compound 2 µM): 0.274 | relative viability ([6]; first compound 0.02 µM): 0.707 | relative viability ([6]; first compound 0.2 µM): 0.655 | relative viability ([6]; first compound 0.6325 µM): 0.502 | relative viability ([6]; first compound 2 µM): 0.467 | relative viability ([7]; first compound 0.02 µM): 0.609 | relative viability ([7]; first compound 0.2 µM): 0.603 | relative viability ([7]; first compound 0.6325 µM): 0.475 | relative viability ([7]; first compound 2 µM): 0.234 | relative viability ([8]; first compound 0.02 µM): 0.496 | relative viability ([8]; first compound 0.2 µM): 0.463 | relative viability ([8]; first compound 0.6325 µM): 0.529 | relative viability ([8]; first compound 2 µM): 0.485 | relative viability ([9]; first compound 0.02 µM): 0.914 | relative viability ([9]; first compound 0.2 µM): 0.863 | relative viability ([9]; first compound 0.6325 µM): 1.2 | relative viability ([9]; first compound 2 µM): 1.07 | relative viability ([10]; first compound 0.02 µM): 0.836 | relative viability ([10]; first compound 0.2 µM): 0.796 | relative viability ([10]; first compound 0.6325 µM): 0.794 | relative viability ([10]; first compound 2 µM): 0.773 | relative viability ([11]; first compound 0.02 µM): 0.756 | relative viability ([11]; first compound 0.2 µM): 0.556 | relative viability ([11]; first compound 0.6325 µM): 0.544 | relative viability ([11]; first compound 2 µM): 0.413 | relative viability ([12]; first compound 0.02 µM): 0.614 | relative viability ([12]; first compound 0.2 µM): 0.532 | relative viability ([12]; first compound 0.6325 µM): 0.875 | relative viability ([12]; first compound 2 µM): 0.623 | relative viability ([13]; first compound 0.02 µM): 0.8 | relative viability ([13]; first compound 0.2 µM): 0.672 | relative viability ([13]; first compound 0.6325 µM): 0.662 | relative viability ([13]; first compound 2 µM): 0.589 | relative viability ([14]; first compound 0.02 µM): 0.284 | relative viability ([14]; first compound 0.6325 µM): 0.309 | relative viability ([14]; first compound 2 µM): 0.261 | relative viability ([15]; first compound 0.02 µM): 0.481 | relative viability ([15]; first compound 0.2 µM): 0.427 | relative viability ([15]; first compound 0.6325 µM): 0.505 | relative viability ([15]; first compound 2 µM): 0.459 | relative viability ([16]; first compound 0.02 µM): 0.791 | relative viability ([16]; first compound 0.2 µM): 0.564 | relative viability ([16]; first compound 0.6325 µM): 0.259 | relative viability ([16]; first compound 2 µM): 0.122 | relative viability ([17]; first compound 0.02 µM): 0.584 | relative viability ([17]; first compound 0.2 µM): 0.65 | relative viability ([17]; first compound 0.6325 µM): 0.637 | relative viability ([17]; first compound 2 µM): 0.381 | relative viability ([18]; first compound 0.02 µM): 0.81 | relative viability ([18]; first compound 0.2 µM): 0.406 | relative viability ([18]; first compound 0.6325 µM): 0.151 | relative viability ([18]; first compound 2 µM): 0.0888 | relative viability ([19]; first compound 0.02 µM): 0.218 | relative viability ([19]; first compound 0.2 µM): 0.165 | relative viability ([19]; first compound 0.6325 µM): 0.161 | relative viability ([19]; first compound 2 µM): 0.151 | relative viability ([20]; first compound 0.02 µM): 0.765 | relative viability ([20]; first compound 0.2 µM): 0.735 | relative viability ([20]; first compound 0.6325 µM): 0.744 | relative viability ([20]; first compound 2 µM): 0.677 | relative viability ([21]; first compound 0.02 µM): 0.707 | relative viability ([21]; first compound 0.2 µM): 0.533 | relative viability ([21]; first compound 0.6325 µM): 0.519 | relative viability ([21]; first compound 2 µM): 0.524 | relative viability ([22]; first compound 0.02 µM): 0.913 | relative viability ([22]; first compound 0.2 µM): 0.671 | relative viability ([22]; first compound 0.6325 µM): 0.96 | relative viability ([22]; first compound 2 µM): 0.812 | relative viability ([23]; first compound 0.02 µM): 0.575 | relative viability ([23]; first compound 0.2 µM): 0.569 | relative viability ([23]; first compound 0.6325 µM): 0.546 | relative viability ([23]; first compound 2 µM): 0.52
